Measurements taken from patent publication US20250215012A1, “IKZF2 DEGRADERS AND USES THEREOF” (REGENTS OF THE UNIVERSITY OF MICHIGAN, priority 2022, published 2025).

Experiments:
[1] = molecular target: GST-tagged wild-type human CRBN protein (Homo sapiens (Human), UniProt Q96SW2); assay: Cereblon Binding Assay (Cisbio Cereblon Binding Kit, TR-FRET); conditions: about 3 hours at room temperature
Description: (§1) The binding to cereblon (CRBN) is determined using the Cereblon Binding Kit (Cisbio, #64BDCRBNPEG) following the manufacturer's instruction. Briefly, serially diluted compounds are incubated with GST-tagged wild-type human CRBN protein, XL665-labelled Thalidomide and Europium Cryptate labelled GST antibody.
as §1, with “(CRBN) was” for “(CRBN) is”, “compounds were” for “compounds are”, “GST antibody at room temperature for about 3 hours.” for “GST antibody.”

IKZF2 [2] = molecular target: T1, IKZF2 (Homo sapiens (Human), UniProt Q96SW2+Q9UKS7); assay: IKZF2 HiBiT Assay (Jurkat-IKZF2-HiBiT cell line); format: cell-based; conditions: for DC50: read-out: HiBit assay degradation analysis DC50; for Dmax: read-out: HiBit assay degradation analysis Dmax
In short: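 IKZF2 degradation was assessed as HiBiT luminescence in Jurkat-IKZF2-HiBiT cells, using lytic detection after 24 h of compound treatment at 37 °C, 5% CO2.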

[3] = molecular target: His tagged CRBN+DDB−DLS7+CXU4 (Homo sapiens (Human), UniProt Q96SW2); assay: IC50 Measurements for Binding to CRBN/DDBI (HTRF); conditions: Cy5-labeled Thalidomide probe, one hour incubation
IKZF2 [4] = molecular target: T1, IKZF2; assay: IKZF2 HiBit Assay (HEK293T Flp-in-HiBiT cells); format: cell-based; conditions: HEK293T Flp-in-HiBiT cells, 6 hrs; for DC50: read-out: IKZF2 HiBit degradation DC50; for Dmax: HEK-293T, read-out: IKZF2 HiBit degradation Dmax
In short: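 HEK293T Flp-in cells carrying CRISPR-inserted N-terminal HiBiT tag at the endogenous IKZF2 locus were treated with an 11-point, 3-fold dilution from 1 mM (stock) for 6 hrs; final DMSO 0.1%. HiBiT luminescence was detected after lysis with LgBiT/substrate reagent. DMSO-normalized curves gave 50% degradation concentration and Dmax.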

IKZF1 = IKZF1 (Homo sapiens (Human), UniProt Q13422+Q96SW2); assay: IKZF1 HiBit Assay (HEK293T Flp-in-HiBiT-IKZF1 stable cell line); format: cell-based; conditions: HEK293T Flp-in-HiBiT-IKZF1 cells, 6 hrs; for DC50: read-out: IKZF1 HiBit degradation DC50; for Dmax: HEK-293T, read-out: IKZF1 HiBit degradation Dmax
In short: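 HEK293T Flp-in cells with CRISPR-inserted N-terminal HiBiT tag treated 6 h with 11-point threefold dilutions (0.1% DMSO). Nano-Glo HiBiT lytic luminescence normalised to DMSO gave the 50%-degradation concentration; Dmax taken as the luminescence range from highest to lowest concentration.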

[5] = Jurkat-IKZF2-HiBiT cells, 24 hours

IKZF1, sequence (Q13422 whole entry): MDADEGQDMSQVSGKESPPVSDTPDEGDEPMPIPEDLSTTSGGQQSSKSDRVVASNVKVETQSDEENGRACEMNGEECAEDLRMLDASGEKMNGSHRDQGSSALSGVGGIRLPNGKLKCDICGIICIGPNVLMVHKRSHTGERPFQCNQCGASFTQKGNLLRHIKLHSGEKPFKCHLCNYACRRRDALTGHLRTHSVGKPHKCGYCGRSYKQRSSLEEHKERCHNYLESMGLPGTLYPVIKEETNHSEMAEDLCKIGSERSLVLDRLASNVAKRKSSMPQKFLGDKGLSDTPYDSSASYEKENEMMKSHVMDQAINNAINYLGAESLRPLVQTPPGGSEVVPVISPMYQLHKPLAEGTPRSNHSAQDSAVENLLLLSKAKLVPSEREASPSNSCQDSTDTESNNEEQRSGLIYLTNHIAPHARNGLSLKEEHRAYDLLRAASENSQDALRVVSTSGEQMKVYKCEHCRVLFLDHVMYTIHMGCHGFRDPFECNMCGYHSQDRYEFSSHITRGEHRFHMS
IKZF1, sequence (Q96SW2 whole entry): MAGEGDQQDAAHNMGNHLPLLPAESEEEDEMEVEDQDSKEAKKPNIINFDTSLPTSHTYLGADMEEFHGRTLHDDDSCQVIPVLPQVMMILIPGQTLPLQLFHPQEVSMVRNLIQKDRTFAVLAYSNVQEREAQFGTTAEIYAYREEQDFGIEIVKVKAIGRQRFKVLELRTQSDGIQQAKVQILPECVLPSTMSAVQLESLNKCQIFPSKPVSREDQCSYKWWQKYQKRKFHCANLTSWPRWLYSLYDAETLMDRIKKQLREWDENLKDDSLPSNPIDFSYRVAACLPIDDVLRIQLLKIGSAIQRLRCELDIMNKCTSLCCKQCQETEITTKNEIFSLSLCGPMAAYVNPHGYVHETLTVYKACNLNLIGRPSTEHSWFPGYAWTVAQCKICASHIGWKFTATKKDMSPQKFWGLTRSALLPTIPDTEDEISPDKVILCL
IKZF1, sequence (Q16531 whole entry partner): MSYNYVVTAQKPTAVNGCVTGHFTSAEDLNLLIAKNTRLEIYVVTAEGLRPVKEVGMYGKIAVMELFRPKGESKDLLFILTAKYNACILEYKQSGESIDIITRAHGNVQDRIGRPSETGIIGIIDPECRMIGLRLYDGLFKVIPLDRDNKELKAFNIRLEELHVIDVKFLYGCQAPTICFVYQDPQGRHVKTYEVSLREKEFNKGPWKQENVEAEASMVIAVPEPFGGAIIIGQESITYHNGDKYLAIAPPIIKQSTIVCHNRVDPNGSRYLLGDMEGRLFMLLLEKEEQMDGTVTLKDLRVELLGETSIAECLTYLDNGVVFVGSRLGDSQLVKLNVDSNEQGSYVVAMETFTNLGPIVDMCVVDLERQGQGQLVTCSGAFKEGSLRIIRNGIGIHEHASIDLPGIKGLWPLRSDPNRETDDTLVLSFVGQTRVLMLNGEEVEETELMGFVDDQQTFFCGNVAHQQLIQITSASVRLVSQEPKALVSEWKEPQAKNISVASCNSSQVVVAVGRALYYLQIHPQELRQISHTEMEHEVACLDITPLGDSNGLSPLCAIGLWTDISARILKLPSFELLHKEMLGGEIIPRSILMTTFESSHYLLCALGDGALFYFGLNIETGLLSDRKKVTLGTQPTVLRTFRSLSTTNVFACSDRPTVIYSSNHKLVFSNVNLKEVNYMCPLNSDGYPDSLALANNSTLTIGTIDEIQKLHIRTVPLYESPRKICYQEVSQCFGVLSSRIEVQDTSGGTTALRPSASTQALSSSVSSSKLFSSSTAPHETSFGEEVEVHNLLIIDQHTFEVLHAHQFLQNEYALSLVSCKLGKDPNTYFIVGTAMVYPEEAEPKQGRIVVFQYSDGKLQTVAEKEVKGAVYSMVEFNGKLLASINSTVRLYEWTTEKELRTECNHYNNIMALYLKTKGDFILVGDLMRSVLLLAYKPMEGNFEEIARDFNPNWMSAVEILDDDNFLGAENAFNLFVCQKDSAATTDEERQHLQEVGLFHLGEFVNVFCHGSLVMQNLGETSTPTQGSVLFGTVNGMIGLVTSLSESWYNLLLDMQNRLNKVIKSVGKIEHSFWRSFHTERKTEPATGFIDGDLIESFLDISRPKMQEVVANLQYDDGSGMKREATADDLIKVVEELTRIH
T1 sequence (Q9UKS7 whole entry): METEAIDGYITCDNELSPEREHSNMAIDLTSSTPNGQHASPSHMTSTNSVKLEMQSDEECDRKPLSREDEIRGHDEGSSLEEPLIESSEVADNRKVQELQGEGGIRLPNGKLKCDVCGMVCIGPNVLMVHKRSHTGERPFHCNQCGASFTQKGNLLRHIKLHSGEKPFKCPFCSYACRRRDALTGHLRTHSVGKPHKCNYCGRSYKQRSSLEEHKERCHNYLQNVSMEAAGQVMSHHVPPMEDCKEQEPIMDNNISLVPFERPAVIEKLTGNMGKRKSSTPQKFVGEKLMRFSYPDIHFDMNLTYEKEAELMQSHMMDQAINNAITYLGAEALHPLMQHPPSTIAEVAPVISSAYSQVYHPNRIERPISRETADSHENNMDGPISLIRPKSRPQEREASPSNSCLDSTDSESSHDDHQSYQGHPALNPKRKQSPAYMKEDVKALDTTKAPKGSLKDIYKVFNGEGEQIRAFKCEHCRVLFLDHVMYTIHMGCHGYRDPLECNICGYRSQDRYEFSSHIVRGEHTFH
T1 sequence (Q96SW2 whole entry): as the sequence (Q96SW2 whole entry) above
T1 sequence (Q16531 whole entry partner): as the sequence (Q16531 whole entry partner) above
His tagged CRBN+DDB−DLS7+CXU4, sequence (Q96SW2 whole entry): as the sequence (Q96SW2 whole entry) above
His tagged CRBN+DDB−DLS7+CXU4, sequence (Q16531 whole entry partner): as the sequence (Q16531 whole entry partner) above
GST-tagged wild-type human CRBN protein, sequence (Q96SW2 whole entry): as the sequence (Q96SW2 whole entry) above

Row | Compound | IC50 [1] [µM] | DC50 (IKZF2 [2]; [5]) [µM] | Dmax (IKZF2 [2]) [%] | Dmax (IKZF2 [2]; [5]) [%] | IC50 [3] [µM] | DC50 (IKZF2 [4]) [µM] | Dmax (IKZF2 [4]) [%] | DC50 (IKZF1) [µM] | Dmax (IKZF1) [%] | IKZF2 HiBit degradation Dmax (IKZF2 [4]) | IKZF1 HiBit degradation Dmax (IKZF1)
1 | O=C1CCC(N2Cc3c(ccc4c3OCC43CCNCC3)C2=O)C(=O)N1 (stereo not drawn) [Compound A1, 3-(6-oxo-6,8-dihydro-2H,7H-spiro[furo[2,3-e]isoindole-3,4′-piperidin]-7-yl)piperidine-2,6-dione] | > 1 | > 0.5 | < 40 |  |  |  |  |  |  |  | 
2 | O=C1CCC(N2Cc3c(ccc4c3OCC43CCN(Cc4ccc(C(F)F)cc4)CC3)C2=O)C(=O)N1 (stereo not drawn) [Compound A3, 3-(1′-(4-(difluoromethyl)benzyl)-6-oxo-6,8-dihydro-2H,7H-spiro[furo[2,3-e]isoindole-3,4′-piperidin]-7-yl)piperidine-2,6-dione] | 0.01 to 0.1 | > 0.5 |  | 40 to 60 |  |  |  |  |  |  | 
3 | O=C1CCC(N2Cc3c(ccc4c3OCC43CCN(Cc4ccc(F)c(F)c4)CC3)C2=O)C(=O)N1 (stereo not drawn) [Compound A5, 3-(1′-(3,4-difluorobenzyl)-6-oxo-6,8-dihydro-2H,7H-spiro[furo[2,3-e]isoindole-3,4′-piperidin]-7-yl)piperidine-2,6-dione] | 0.1 to 1 | > 0.5 |  | < 40 |  |  |  |  |  |  | 
4 | Cn1cc2cc(CN3CCC4(COc5c4ccc4c5CN([C@H]5CCC(=O)NC5=O)C4=O)C(F)(F)C3)ccc2n1 (stereo partly drawn) [Compound B37, (3S)-3-(3′,3′-difluoro-1′-((2-methyl-2H-indazol-5-yl)methyl)-6-oxo-6,8-dihydro-2H,7H-spiro[furo[2,3-e]isoindole-3,4′-piperidin]-7-yl)piperidine-2,6-dione] |  |  |  |  | < 0.1 | 0.001 to 0.01 | 60 to 80 | > 1 | < 20 |  | 
5 | Cn1ncc2cc(CN3CCC4(COc5c4ccc4c5CN([C@H]5CCC(=O)NC5=O)C4=O)C(F)(F)C3)ccc21 (stereo partly drawn) [Compound B38, (3S)-3-(3′,3′-difluoro-1′-((1-methyl-1H-indazol-5-yl)methyl)-6-oxo-6,8-dihydro-2H,7H-spiro[furo[2,3-e]isoindole-3,4′-piperidin]-7-yl) piperidine-2,6-dione] |  |  |  |  | 0.1 to 0.5 | 0.001 to 0.01 | 60 to 80 | > 1 | < 20 |  | 
6 | Cn1cc(-c2cccc(CN3CCC4(COc5c4ccc4c5CN([C@H]5CCC(=O)NC5=O)C4=O)C(F)(F)C3)c2)cn1 (stereo partly drawn) [Compound B39, (3S)-3-(3′,3′-difluoro-1′-(3-(1-methyl-1H-pyrazol-4-yl)benzyl)-6-oxo-6,8-dihydro-2H,7H-spiro[furo[2,3-e]isoindole-3,4′-piperidin]-7-yl) piperidine-2,6-dione] |  |  |  |  | 0.1 to 0.5 | < 0.001 | 60 to 80 | > 1 | < 20 |  | 
7 | O=C1CC[C@H](N2Cc3c(ccc4c3OCC43CCN(Cc4ccc5[nH]ncc5c4)CC3(F)F)C2=O)C(=O)N1 (stereo partly drawn) [Compound B40, (3S)-3-(1′-((1H-indazol-5-yl)methyl)-3′,3′-difluoro-6-oxo-6,8-dihydro-2H,7H-spiro[furo[2,3-e]isoindole-3,4′-piperidin]7-yl) piperidine-2,6-dione] |  |  |  |  | 0.1 to 0.5 | 0.001 to 0.01 | 60 to 80 | > 1 | < 20 |  | 
8 | O=C1CC[C@H](N2Cc3c(ccc4c3OCC43CCN(Cc4cccc5[nH]ncc45)CC3(F)F)C2=O)C(=O)N1 (stereo partly drawn) [Compound B41, (3S)-3-(1′-((1H-indazol-4-yl)methyl)-3′,3′-difluoro-6-oxo-6,8-dihydro-2H,7H-spiro[furo[2,3-e]isoindole-3,4′-piperidin]-7-yl)piperidine-2,6-dione] |  |  |  |  | 0.1 to 0.5 | 0.001 to 0.01 | 60 to 80 | 0.01 to 0.1 | 20 to 40 |  | 
9 | Cn1cc2c(CN3CCC4(COc5c4ccc4c5CN([C@H]5CCC(=O)NC5=O)C4=O)C(F)(F)C3)cccc2n1 (stereo partly drawn) [Compound B42, (3S)-3-(3′,3′-difluoro-1′-((2-methyl-2H-indazol-4-yl)methyl)-6-oxo-6,8-dihydro-2H,7H-spiro[furo[2,3-e]isoindole-3,4′-piperidin]-7-yl)piperidine-2,6-dione] |  |  |  |  | 0.1 to 0.5 | 0.001 to 0.01 | 60 to 80 | > 1 | < 20 |  | 
10 | Cn1ncc2c(CN3CCC4(COc5c4ccc4c5CN([C@H]5CCC(=O)NC5=O)C4=O)C(F)(F)C3)cccc21 (stereo partly drawn) [Compound B43, (3S)-3-(3′,3′-difluoro-1′-((1-methyl-1H-indazol-4-yl)methyl)-6-oxo-6,8-dihydro-2H,7H-spiro[furo[2,3-e]isoindole-3,4′-piperidin]-7-yl)piperidine-2,6-dione] |  |  |  |  | 1 to 5 | 0.001 to 0.01 | 60 to 80 | > 1 | < 20 |  | 
11 | O=C1CC[C@H](N2Cc3c(ccc4c3OCC43CCN(Cc4cccc5cn[nH]c45)CC3(F)F)C2=O)C(=O)N1 (stereo partly drawn) [Compound B44] |  |  |  |  | < 0.1 | 0.001 to 0.01 | > 80 | 0.1 to 1 | 20 to 40 |  | 
12 | Cn1ncc2cccc(CN3CCC4(COc5c4ccc4c5CN([C@H]5CCC(=O)NC5=O)C4=O)C(F)(F)C3)c21 (stereo partly drawn) [Compound B45, (3S)-3-(3′,3′-difluoro-1′-((1-methyl-1H-indazol-7-yl)methyl)-6-oxo-6,8-dihydro-2H,7H-spiro[furo[2,3-e]isoindole-3,4′-piperidin]-7-yl)piperidine-2,6-dione] |  |  |  |  | 0.1 to 0.5 | 0.001 to 0.01 | > 80 | 0.01 to 0.1 | 20 to 40 |  | 
13 | [2H]C([2H])(c1cccc(-c2cnn(C([2H])([2H])[2H])c2)c1)N1CCC2(COc3c2ccc2c3CN([C@H]3CCC(=O)NC3=O)C2=O)C(F)(F)C1 (stereo partly drawn) [Compound B48, (3S)-3-(3′,3′-difluoro-1′-((3-(1-(methyl-d3)-1H-pyrazol-4-yl)phenyl)methyl-d2)-6-oxo-6,8-dihydro-2H,7H-spiro[furo[2,3-e]isoindole-3,4′-piperidin]-7-yl)piperidine-2,6-dione] |  |  |  |  | 0.1 to 0.5 | < 0.001 | 60 to 80 | > 1 | < 20 |  | 
14 | [2H]C([2H])([2H])n1cc(-c2cccc(CN3CCC4(COc5c4ccc4c5CN([C@H]5CCC(=O)NC5=O)C4=O)C(F)(F)C3)c2)cn1 (stereo partly drawn) [Compound B49, (3S)-3-(3′,3′-difluoro-1′-(3-(1-(methyl-d3)-1H-pyrazol-4-yl)benzyl)-6-oxo-6,8-dihydro-2H,7H-spiro[furo[2,3-e]isoindole-3,4′-piperidin]-7-yl) piperidine-2,6-dione] |  |  |  |  | 0.1 to 0.5 | < 0.001 | > 80 | > 1 | < 20 |  | 
15 | [2H]C([2H])(c1cccc(-c2cnn(C)c2)c1)N1CCC2(COc3c2ccc2c3CN([C@H]3CCC(=O)NC3=O)C2=O)C(F)(F)C1 (stereo partly drawn) [Compound B50] |  |  |  |  | 0.1 to 0.5 | 0.001 to 0.01 | 60 to 80 | > 1 | < 20 |  | 
16 | Cn1cc(-c2cccc(CN3CC[C@@]4(COc5c4ccc4c5CN([C@H]5CCC(=O)NC5=O)C4=O)C(F)(F)C3)c2)cn1 [Compound B52, (S)-3-((R)-3′,3′-difluoro-1′-(3-(1-methyl-1H-pyrazol-4-yl)benzyl)-6-oxo-6,8-dihydro-2H,7H-spiro[furo[2,3-e]isoindole-3,4′-piperidin]-7-yl)piperidine-2,6-dione] |  |  |  |  | 0.1 to 0.5 | 0.001 to 0.01 | 40 to 60 | > 1 | < 20 |  | 
17 | (3S)-3-(1′-((1H-indazol-6-yl)methyl)-3′,3′-difluoro-3-oxo-1,3,7,8-tetrahydro-2H-spiro[cyclopenta[e]isoindole-6,4′-piperidin]-2-yl)piperidine-2,6-dione [Compound B33] |  |  |  |  | 0.1 to 0.5 | 0.001 to 0.01 |  | > 1 |  | B (B: 60-80%) | C (C: <20%)
18 | (3S)-3-(3′,3′-difluoro-1′-((1-methyl-1H-indazol-6-yl)methyl)-3-oxo-1,3,7,8-tetrahydro-2H-spiro[cyclopenta[e]isoindole-6,4′-piperidin]-2-yl)piperidine-2,6-dione [Compound B34] |  |  |  |  | 0.1 to 0.5 | 0.001 to 0.01 |  | > 1 |  | B (B: 60-80%) | C (C: <20%)
